Data reported in patent US9777258B2, “Methods for differentiating cells into hepatic stellate cells and hepatic sinusoidal endothelial cells, cells produced by the method, and methods for using the cells” (Katholieke Universiteit Leuven, priority 2010, dated 2017).

System: Cyp1a2
Test: Cytochrome P450 activity (P450-Glo Assay, induction of Cyp1a2)
Conditions: mouse iPS-derived hepatocyte-like cells kept in final maturation medium until day 42; incubation with 100 μM phenobarbital
Protocol: Cytochrome P450 activity. Cytochrome […] activity was detected by using the non-lytic method of P450-Glo™ Assay (Promega V8771). Mouse iPS cells were incubated with luminogenic substrate (Luciferin-ME) for 4 hours at 37° C. 50 μl was mixed with 50 μl Luciferin Detection Reagent in triplicate. Mean luminescence was calculated from 11 consecutive time points with 2 minutes interval. Induction of Cyp1a2 was performed by incubation with 100 μM phenobarbital.

## CCC1(c2ccccc2)C(=O)NC(=O)NC1=O [phenobarbital]
  increase of Cyp1a2 activity: 45%
